Measured values published in BindingDB's records for doi:10.1124/mol.51.1.109 (Max-Planck Institute For Experimental Medicine, 1997).

Tests used:
P2X purinoceptor 4 [1] = target: T1, P2X purinoceptor 4 (Rattus norvegicus, UniProt P51577)
T1 sequence (P51577 whole entry): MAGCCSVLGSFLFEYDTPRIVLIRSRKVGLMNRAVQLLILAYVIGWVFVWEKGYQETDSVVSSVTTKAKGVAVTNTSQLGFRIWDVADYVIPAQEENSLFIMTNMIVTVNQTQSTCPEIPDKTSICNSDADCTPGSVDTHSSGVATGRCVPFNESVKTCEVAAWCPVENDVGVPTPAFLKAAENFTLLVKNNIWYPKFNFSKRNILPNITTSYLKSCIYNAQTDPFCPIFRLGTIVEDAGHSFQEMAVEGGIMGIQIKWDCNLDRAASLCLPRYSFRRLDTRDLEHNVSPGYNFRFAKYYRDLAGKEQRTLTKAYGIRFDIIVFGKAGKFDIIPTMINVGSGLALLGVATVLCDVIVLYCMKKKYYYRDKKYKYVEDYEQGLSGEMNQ

P2X purinoceptor 4 [2] = target: T2, P2X purinoceptor 4 (Homo sapiens, UniProt Q99571)
T2 sequence (Q99571 whole entry): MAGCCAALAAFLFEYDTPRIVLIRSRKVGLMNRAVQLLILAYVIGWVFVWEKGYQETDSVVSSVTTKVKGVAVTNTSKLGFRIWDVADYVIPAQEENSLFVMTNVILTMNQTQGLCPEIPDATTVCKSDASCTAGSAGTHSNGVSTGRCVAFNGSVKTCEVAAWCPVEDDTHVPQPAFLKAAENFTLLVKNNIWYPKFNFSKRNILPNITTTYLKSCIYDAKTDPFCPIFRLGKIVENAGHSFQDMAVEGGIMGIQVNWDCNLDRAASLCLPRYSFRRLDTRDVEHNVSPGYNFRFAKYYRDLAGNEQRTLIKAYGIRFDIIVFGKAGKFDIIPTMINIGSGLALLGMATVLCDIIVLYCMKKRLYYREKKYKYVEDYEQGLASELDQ

Row | Compound | Ki (P2X purinoceptor 4 [1]) | Ki (P2X purinoceptor 4 [2])
1 | Nc1c(S(=O)(=O)O)cc(Nc2ccc(Nc3nc(Cl)nc(Nc4cccc(S(=O)(=O)O)c4)n3)c(S(=O)(=O)O)c2)c2c1C(=O)c1ccccc1C2=O | 0.0462 µM | –
2 | Cc1nc(/N=N/c2ccc(S(=O)(=O)O)cc2S(=O)(=O)O)c(COP(=O)(O)O)c(C=O)c1O | 0.5 µM | –
3 | O=S1(=O)OC(c2cc(Br)c(O)c(Br)c2)(c2cc(Br)c(O)c(Br)c2)c2ccccc21 [NSC_8272] | 0.301 µM | 0.0783 µM

The next lines start with results.

Row | Ki (P2X purinoceptor 4 [1]) | Compound | Ki (P2X purinoceptor 4 [2])
4 | 0.128 µM | Nc1c(S(=O)(=O)O)cc(Nc2ccc(Nc3nc(Cl)nc(Nc4ccccc4S(=O)(=O)O)n3)c(S(=O)(=O)O)c2)c2c1C(=O)c1ccccc1C2=O | –
5 | 0.5 µM | Cc1ccc(C(=O)Nc2ccc(S(=O)(=O)O)c3cc(S(=O)(=O)O)cc(S(=O)(=O)O)c23)cc1NC(=O)c1cccc(NC(=O)Nc2cccc(C(=O)Nc3cc(C(=O)Nc4ccc(S(=O)(=O)O)c5cc(S(=O)(=O)O)cc(S(=O)(=O)O)c45)ccc3C)c2)c1 [suramin] | 0.178 µM
